Laboratory results reported in patent US12227713B2, “Polysiloxane hydraulic fluids” (THE BOEING COMPANY, priority 2016, dated 2025).

Assay: Viscosity (ASTM D445)
Type: physicochemical
From the text: The viscosity may be determined using the protocol in ASTM D445, and for example ASTM D445FL1 for low temperature measurements.

CCCCCCCCCCP(=O)(OCC)OCC [DiEthyl Decane Phosphonate (AP28), DiEthyl Decane Phosphonate]
38 C. Viscosity (cP): 4.89 ± 0.01 cP
Room Temp (25 C.) Viscosity (cP): 7.02 ± 0.04 cP
−54 C. Viscosity (cP): Frozen <3 hr

CCCCCCCCCCP(=O)(OCCCC)OCCCC [DiButyl Decane Phosphonate (AP32), DiButyl Decane Phosphonate]
38 C. Viscosity (cP): 4.91 ± 0.01 cP
Room Temp (25 C.) Viscosity (cP): 6.97 ± 001 cP
−54 C. Viscosity (cP): 706.2 ± 5.4 cP
